# Measured values as given in ChEMBL document CHEMBL1201862, “PubChem BioAssay data set” (2004).
# “And” between values parts separate entries of the source, which are not always exact repeats. Equal values may be shown once. The source made the active and inactive calls.
# Tests used:
# [1] = Vero cell cytotoxicity, dose response, cytotoxicity control for M. tuberculosis growth inhibitor project, Vero cells, purified and synthesized compounds, set 4 (AID 504854); format: functional; conditions: Mycobacterium tuberculosis
# [2] = THP-1 cell cytotoxicity, cytotoxicity control, set 4 (AID 504911); format: functional; conditions: Mycobacterium tuberculosis
# [3] = THP-1 cell cytotoxicity, dose response, cytotoxicity control, set 3 (AID 504852); format: functional; conditions: Mycobacterium tuberculosis
# [4] = biological target: Serine/threonine-protein kinase PLK3 (Homo sapiens, UniProt Q9H4B4); format: functional
# [5] = biological target: Casein kinase II subunit alpha (Homo sapiens, UniProt P68400); format: functional
# [6] = A Cell Based Secondary Assay to Explore Cytotoxicity in THP-1 Cells of Compounds that Modulate Mycobacterium tuberculosis in Media Containing Glycerol versus Media without Glycerol (2).; format: functional
# [7] = fluconazole-exposed Candida albicans growth modulators – fluorescence, retest, confirmation (AID 2467); format: functional, cell-based
# [8] = microbe, parasite or virus in culture; format: functional; conditions: Mycobacterium tuberculosis
# [9] = NIH-3T3 fibroblast cytotoxicity, dose response, cytotoxicity control, cell-based, fluorescence, Alamar Blue, secondary assay (AID 2327); format: functional;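 also: NIH-3T3 mouse fibroblasts cultured with fluconazole at 8 µg/mL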
# INS1 = experiment: INS-1E survival protection against cytokine death – cell-based, luminescence, retest, dose response (AID 449756); format: functional; conditions: Rattus norvegicus;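 also: cell death triggered by IL-1 beta plus TNF-alpha plus IFN-gamma mixture; protective hits raise ATP signal compared with cytokine alone wells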
# [10] = A Cell Based Secondary Assay to Explore Cytotoxicity in HepG2 Cells of Compounds that Modulate Mycobacterium tuberculosis in Media Containing Glycerol versus Media without Glycerol (2).; format: functional
# [11] = biological target: T1, Serine/threonine-protein phosphatase (Candida dubliniensis (strain CD36 / CBS 7987 / NCPF 3949 / NRRLY-17841) (Yeast), UniProt B9W6M3); experiment: blockers of CaCl2-induced CDRE-lacZ signaling – S. cerevisiae, luminescence, secondary, dose response (AID 2388); format: functional, cell-based;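 also: yeast reporter cells carrying a calcineurin-responsive lacZ construct stimulated with calcium chloride; luminescent beta-galactosidase reporter signal in whole cells rather than isolated phosphatase activity; potency for inhibition where a drop in reporter signal means calcineurin blockade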
# T1 sequence (B9W6M3 whole entry): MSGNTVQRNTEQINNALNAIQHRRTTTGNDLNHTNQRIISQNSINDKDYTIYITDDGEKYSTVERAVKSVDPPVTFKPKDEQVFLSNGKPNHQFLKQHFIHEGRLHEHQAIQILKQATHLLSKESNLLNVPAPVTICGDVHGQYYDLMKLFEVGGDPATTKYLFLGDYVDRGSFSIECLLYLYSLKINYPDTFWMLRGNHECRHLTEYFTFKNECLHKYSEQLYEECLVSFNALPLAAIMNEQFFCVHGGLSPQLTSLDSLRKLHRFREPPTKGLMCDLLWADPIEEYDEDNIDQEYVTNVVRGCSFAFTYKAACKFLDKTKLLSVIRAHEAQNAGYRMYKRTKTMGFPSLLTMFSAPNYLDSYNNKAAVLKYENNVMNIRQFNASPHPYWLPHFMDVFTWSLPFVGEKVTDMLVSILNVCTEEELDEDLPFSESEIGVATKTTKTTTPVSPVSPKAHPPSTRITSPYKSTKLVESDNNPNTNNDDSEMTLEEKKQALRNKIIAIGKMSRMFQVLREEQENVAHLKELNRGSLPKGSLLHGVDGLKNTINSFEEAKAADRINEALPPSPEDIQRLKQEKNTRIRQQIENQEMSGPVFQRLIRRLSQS
# [12] = Vero cell cytotoxicity, cytotoxicity control for M. tuberculosis inhibitor project, purified and synthesized samples, set 3 (AID 504684); format: functional
# [13] = biological target: ATP-dependent molecular chaperone HSP82 (Candida albicans (strain WO-1) (Yeast), UniProt C4YTQ8); experiment: steroid-induced GRE reporter decrease in yeast – S. cerevisiae, luminescence, Hsp90 inhibitor project, dose response (AID 2400); format: functional, cell-based;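 also: beta-galactosidase luminescence from glucocorticoid response element reporter as proxy for Hsp90 function; inhibitor potency where signal loss means Hsp90 inhibition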
# [14] = biological target: DNA dC->dU-editing enzyme APOBEC-3A (Homo sapiens, UniProt P31941); experiment: SAR analysis of small molecule inhibitors of APOBEC3A DNA Deaminase via a fluorescence-based single-stranded DNA deaminase assay.; format: functional; conditions: read-out: IC50_Mean
# [15] = biological target: DNA dC->dU-editing enzyme APOBEC-3G (Homo sapiens, UniProt Q9HC16); experiment: inhibition of APOBEC3G ssDNA deamination – biochemical, fluorescence, single-stranded DNA substrate, SAR follow-up (AID 602136); format: functional; conditions: read-out: IC50_Mean
# [16] = biological target: Mitogen-activated protein kinase 13 (Homo sapiens, UniProt O15264); format: functional
# [17] = biological target: T2, Mitochondrial peptide methionine sulfoxide reductase (Bos taurus, UniProt P54149); experiment: Absorbance-based biochemical high throughput dose response assay for activators of Methionine sulfoxide reductase A (MsrA).; format: functional
# T2 sequence (P54149 whole entry): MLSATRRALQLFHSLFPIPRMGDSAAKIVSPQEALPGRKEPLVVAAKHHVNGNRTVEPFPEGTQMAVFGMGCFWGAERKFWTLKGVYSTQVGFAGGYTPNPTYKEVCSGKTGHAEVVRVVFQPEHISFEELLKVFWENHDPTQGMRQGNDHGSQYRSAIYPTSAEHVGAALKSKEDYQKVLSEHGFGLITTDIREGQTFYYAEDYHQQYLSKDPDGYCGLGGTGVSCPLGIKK
# [18] = biological target: Multidrug resistance protein CDR2 (Candida albicans (strain SC5314 / ATCC MYA-2876) (Yeast), UniProt P78595); experiment: blockers of Nile Red efflux by Candida CDR2 – S. cerevisiae AD1-8u, singleplex, Cherry Pick2 set, dose response (AID 623994); format: functional; conditions: read-out: EC50_MICROM
# [19] = biological target: Dual specificity tyrosine-phosphorylation-regulated kinase 1B (Homo sapiens, UniProt Q9Y463); experiment: Navigating the Kinome. Panel member name: DYRK1B; format: functional
# [20] = biological target: Serine/threonine-protein kinase 3 (Homo sapiens, UniProt Q13188); format: functional;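 also: measured as one member of a kinome-wide kinase panel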
# [21] = biological target: T3, Apoptotic protease-activating factor 1 (Homo sapiens, UniProt O14727); experiment: SAR analysis of small molecule Activators of Apaf-1 in a Fluorescent assay.; format: functional; conditions: read-out: EC50_Mean;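 also: caspase-3 cleavage of fluorogenic Rh110 DEVD substrate downstream of apoptosome activation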
# T3 sequence (O14727 whole entry): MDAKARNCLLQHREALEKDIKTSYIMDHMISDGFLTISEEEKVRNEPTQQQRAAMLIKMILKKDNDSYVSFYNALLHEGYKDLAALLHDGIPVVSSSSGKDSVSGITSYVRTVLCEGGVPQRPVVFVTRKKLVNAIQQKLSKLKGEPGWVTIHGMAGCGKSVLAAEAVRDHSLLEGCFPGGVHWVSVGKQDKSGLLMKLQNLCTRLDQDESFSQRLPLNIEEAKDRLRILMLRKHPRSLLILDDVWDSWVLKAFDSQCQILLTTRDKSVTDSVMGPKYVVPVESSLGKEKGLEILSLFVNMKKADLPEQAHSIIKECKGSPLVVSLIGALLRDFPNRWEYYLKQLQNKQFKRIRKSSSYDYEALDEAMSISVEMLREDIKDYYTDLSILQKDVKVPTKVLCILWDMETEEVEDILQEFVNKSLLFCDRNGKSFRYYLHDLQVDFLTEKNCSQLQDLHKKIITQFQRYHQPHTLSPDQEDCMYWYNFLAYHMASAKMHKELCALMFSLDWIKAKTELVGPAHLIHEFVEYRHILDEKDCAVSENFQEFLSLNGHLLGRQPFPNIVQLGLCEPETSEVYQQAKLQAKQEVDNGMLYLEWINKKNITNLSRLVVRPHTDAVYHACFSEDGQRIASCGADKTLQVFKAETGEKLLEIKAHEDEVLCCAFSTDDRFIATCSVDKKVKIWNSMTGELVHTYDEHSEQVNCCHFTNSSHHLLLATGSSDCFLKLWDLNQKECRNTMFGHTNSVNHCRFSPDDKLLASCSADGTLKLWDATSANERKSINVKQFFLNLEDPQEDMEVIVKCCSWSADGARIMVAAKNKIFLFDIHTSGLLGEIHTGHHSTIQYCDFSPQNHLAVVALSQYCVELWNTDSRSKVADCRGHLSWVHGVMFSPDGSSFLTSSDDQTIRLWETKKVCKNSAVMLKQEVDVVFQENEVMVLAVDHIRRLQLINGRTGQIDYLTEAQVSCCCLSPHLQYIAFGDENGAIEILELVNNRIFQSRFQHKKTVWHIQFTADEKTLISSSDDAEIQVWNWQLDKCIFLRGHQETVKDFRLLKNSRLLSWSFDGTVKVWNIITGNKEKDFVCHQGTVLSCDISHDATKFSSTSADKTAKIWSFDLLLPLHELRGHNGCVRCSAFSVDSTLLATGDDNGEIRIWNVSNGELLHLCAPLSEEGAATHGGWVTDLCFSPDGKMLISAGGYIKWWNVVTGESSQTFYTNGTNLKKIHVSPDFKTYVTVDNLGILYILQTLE
# [22] = biological target: DNA (cytosine-5)-methyltransferase 1 (Homo sapiens, UniProt P26358); experiment: inhibition of DNA methylation by DNMT1 – biochemical, fluorescent molecular beacon, confirmation (AID 602386); format: functional
# [23] = biological target: T4, Histone-lysine N-methyltransferase NSD2 (Homo sapiens, UniProt O96028); format: biochemical
# T4 sequence (O96028 whole entry): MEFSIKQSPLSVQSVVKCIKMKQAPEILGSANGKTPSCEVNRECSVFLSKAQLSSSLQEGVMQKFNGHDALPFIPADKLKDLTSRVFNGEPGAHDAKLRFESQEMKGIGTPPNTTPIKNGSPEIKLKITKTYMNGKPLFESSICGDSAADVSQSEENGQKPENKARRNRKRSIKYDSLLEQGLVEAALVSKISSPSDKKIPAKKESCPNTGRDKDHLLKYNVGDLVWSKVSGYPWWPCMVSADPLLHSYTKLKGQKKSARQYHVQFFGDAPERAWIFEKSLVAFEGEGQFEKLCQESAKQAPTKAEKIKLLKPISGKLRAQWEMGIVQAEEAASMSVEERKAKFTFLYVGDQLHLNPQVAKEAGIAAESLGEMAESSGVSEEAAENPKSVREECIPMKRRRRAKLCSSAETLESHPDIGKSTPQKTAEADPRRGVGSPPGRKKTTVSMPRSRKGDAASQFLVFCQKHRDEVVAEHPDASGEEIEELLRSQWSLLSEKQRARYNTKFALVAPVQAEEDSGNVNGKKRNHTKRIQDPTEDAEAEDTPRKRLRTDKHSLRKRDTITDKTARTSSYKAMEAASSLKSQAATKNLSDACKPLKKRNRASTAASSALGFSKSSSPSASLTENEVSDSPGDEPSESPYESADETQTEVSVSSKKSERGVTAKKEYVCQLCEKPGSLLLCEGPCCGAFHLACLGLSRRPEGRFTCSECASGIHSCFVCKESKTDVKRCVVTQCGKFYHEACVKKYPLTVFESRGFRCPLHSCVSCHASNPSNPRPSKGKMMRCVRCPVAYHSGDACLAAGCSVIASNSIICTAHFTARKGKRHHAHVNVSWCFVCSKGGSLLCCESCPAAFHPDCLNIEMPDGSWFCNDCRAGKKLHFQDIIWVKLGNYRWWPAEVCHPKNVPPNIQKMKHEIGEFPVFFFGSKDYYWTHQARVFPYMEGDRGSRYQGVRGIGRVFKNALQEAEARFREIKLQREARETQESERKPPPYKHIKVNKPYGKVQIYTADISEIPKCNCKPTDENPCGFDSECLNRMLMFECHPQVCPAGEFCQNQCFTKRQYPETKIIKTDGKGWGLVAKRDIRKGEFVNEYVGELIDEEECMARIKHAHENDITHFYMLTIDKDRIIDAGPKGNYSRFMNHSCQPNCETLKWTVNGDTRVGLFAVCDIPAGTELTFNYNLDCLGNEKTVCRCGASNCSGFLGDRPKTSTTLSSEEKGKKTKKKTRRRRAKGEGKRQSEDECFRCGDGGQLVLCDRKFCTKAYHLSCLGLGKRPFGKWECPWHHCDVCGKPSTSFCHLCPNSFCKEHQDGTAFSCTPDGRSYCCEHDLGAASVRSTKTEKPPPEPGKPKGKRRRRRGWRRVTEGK
# [24] = biological target: Ras and Rab interactor 1/Tyrosine-protein kinase ABL1 (Homo sapiens, UniProt P00519+Q13671); format: functional;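 also: biochemical TR-FRET dose-response test measuring inhibition of binding between Rin1 and Abl proteins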
# Sequence of Ras and Rab interactor 1/Tyrosine-protein kinase ABL1 (P00519 whole entry): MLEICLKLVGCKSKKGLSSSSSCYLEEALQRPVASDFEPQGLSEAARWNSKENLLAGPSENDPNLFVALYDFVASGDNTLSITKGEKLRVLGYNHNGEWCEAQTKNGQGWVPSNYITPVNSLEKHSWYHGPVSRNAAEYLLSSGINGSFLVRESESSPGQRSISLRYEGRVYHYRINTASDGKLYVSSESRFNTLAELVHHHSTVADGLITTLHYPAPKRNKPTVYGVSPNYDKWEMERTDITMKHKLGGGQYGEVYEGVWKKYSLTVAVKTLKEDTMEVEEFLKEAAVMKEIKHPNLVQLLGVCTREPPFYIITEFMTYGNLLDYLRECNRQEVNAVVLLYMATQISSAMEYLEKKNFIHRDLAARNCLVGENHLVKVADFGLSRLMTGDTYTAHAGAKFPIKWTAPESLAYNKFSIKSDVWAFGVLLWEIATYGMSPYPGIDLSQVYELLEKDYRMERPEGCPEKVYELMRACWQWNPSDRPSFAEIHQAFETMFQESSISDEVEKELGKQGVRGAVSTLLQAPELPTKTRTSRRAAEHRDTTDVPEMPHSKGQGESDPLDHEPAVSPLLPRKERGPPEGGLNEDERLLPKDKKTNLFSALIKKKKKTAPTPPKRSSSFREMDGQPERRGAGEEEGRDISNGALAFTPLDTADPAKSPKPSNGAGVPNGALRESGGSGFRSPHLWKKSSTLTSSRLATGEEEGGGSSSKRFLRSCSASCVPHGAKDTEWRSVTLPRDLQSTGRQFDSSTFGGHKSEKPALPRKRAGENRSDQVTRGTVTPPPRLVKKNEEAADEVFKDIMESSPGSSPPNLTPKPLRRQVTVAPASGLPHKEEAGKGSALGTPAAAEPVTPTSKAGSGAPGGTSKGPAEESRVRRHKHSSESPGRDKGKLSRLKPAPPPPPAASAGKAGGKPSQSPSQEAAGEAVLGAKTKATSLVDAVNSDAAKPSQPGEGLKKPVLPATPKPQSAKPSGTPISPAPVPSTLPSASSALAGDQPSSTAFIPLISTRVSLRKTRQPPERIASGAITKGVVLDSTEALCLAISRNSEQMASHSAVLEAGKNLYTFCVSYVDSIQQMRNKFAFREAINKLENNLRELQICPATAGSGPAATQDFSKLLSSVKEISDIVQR
# Sequence of Ras and Rab interactor 1/Tyrosine-protein kinase ABL1 (Q13671 whole entry): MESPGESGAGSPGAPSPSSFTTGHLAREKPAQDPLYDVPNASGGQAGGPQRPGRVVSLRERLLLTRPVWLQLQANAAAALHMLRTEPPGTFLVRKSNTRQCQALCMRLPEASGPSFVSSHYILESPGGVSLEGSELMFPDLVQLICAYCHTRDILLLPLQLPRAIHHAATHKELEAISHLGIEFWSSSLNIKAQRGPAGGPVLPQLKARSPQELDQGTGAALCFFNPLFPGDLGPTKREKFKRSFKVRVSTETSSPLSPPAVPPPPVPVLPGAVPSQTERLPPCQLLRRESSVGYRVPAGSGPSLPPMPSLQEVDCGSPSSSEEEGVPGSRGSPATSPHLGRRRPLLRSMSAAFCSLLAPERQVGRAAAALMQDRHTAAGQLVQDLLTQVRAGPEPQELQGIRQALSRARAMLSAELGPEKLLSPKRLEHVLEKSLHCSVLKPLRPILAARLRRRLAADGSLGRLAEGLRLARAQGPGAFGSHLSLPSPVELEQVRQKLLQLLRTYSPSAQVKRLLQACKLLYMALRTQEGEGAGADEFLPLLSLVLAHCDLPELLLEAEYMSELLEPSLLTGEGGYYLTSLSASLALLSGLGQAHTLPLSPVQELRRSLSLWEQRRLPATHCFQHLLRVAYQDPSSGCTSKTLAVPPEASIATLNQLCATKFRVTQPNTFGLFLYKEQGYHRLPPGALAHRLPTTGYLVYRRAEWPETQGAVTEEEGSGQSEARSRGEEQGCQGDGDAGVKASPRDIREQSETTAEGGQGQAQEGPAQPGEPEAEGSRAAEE
# Sequence of DNA dC->dU-editing enzyme APOBEC-3G (Q9HC16 whole entry): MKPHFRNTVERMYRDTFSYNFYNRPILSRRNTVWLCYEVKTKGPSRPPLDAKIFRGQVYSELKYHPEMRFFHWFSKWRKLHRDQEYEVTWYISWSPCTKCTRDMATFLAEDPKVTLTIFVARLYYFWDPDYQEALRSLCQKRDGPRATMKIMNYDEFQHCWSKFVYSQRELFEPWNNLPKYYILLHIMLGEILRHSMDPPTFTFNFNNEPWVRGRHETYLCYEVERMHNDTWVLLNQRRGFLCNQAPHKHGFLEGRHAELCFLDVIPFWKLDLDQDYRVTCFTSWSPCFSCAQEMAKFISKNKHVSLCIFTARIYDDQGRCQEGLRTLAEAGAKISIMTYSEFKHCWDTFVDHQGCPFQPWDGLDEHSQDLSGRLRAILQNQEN
# Sequence of Serine/threonine-protein kinase 3 (Q13188 whole entry): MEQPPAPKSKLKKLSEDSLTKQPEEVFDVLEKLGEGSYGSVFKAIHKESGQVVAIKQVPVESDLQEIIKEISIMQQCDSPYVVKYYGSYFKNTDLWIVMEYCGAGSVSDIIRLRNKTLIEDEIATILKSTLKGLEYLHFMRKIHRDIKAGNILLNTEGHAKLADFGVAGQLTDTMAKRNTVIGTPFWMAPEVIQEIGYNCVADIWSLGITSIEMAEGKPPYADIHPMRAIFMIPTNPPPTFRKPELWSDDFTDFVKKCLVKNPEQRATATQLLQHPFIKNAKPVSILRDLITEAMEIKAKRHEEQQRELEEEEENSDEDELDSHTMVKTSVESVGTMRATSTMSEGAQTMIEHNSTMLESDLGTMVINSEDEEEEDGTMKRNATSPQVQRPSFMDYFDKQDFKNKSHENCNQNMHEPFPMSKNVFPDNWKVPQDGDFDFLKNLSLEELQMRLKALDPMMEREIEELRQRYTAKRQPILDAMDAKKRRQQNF
# Sequence of DNA dC->dU-editing enzyme APOBEC-3A (P31941 whole entry): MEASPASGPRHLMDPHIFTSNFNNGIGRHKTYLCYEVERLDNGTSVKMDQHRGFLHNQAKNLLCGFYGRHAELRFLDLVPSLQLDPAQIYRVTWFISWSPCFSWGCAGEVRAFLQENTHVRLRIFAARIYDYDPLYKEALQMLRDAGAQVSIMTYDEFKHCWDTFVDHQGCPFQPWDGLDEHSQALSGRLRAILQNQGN
# Sequence of Dual specificity tyrosine-phosphorylation-regulated kinase 1B (Q9Y463 whole entry): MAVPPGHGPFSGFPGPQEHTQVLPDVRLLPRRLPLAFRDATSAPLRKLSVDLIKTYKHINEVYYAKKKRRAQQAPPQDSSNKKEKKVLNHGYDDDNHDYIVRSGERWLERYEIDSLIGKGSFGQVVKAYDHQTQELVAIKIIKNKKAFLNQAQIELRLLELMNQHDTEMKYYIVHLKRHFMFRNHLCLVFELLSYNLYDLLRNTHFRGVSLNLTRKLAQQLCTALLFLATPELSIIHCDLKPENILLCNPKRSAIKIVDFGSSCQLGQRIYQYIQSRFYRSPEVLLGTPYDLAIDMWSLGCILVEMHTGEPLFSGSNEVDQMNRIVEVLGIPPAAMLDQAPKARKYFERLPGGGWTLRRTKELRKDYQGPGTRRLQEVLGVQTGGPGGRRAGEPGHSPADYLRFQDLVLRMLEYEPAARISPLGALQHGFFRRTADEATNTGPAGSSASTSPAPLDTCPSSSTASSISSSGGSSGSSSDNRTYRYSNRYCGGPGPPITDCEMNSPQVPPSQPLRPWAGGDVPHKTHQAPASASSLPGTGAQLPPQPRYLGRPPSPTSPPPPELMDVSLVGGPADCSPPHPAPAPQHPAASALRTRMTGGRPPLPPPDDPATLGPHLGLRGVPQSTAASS
# Sequence of ATP-dependent molecular chaperone HSP82 (C4YTQ8 whole entry): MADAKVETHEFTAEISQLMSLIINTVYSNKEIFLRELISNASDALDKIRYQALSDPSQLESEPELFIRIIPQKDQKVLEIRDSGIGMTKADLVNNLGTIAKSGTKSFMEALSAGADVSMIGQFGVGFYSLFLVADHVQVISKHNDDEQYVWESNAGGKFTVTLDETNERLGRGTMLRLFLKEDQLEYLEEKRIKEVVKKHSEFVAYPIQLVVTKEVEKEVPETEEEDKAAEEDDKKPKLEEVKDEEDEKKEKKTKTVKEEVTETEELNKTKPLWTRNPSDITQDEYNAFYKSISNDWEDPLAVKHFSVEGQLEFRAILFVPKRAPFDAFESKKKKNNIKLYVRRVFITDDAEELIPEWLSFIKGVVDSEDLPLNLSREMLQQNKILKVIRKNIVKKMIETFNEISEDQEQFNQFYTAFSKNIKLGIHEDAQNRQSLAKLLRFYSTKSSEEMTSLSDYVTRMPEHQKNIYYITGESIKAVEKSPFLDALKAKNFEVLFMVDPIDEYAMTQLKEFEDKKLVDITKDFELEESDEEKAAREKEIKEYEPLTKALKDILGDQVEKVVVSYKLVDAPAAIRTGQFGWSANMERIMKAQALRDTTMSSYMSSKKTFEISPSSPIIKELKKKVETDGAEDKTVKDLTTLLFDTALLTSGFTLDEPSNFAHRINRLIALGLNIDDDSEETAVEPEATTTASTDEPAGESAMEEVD
# Sequence of Casein kinase II subunit alpha (P68400 whole entry): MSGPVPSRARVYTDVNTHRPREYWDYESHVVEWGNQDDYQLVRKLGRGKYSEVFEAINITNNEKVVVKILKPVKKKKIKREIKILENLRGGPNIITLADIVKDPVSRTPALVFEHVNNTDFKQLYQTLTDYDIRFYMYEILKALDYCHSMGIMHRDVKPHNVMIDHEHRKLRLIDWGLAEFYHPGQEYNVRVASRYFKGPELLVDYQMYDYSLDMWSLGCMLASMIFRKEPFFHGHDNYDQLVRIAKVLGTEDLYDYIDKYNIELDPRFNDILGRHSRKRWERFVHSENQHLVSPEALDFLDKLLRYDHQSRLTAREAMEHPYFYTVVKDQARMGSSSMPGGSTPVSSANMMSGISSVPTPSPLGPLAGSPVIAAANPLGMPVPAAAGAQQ
compound,measurement,setting,value
CC(Sc1nc2ccccc2c(=O)[nH]1)C(=O)NC1CCCCC1 (configuration not stated),CC50,[1],> 100 µM (active)
same,CC50,[2],> 100 µM (active)
same,CC50,[3],> 100 µM (active)
Nc1csc(Nc2ccccc2)n1,Ki,[4],2.51 µM (active)
same,Ki,[5],10 µM (active)
Cc1ccc2ccc3ccc(C)nc3c2n1 [NEOCUPROINE],CC50,[6],< 0.2 µM (active)
same,EC50,[7],0.133 µM (active)
same,CC50,[8],36.4 µM (active)
same,EC50,[9],147 µM (active)
same,AC50,INS1,< 0.195 µM (active)
same,CC50,[10],0.21 µM (active)
same,EC50,[11],> 180 µM (inactive)
same,CC50,[12],1.23 µM (active)
same,EC50,[13],> 150 µM (inactive)
O=C(NC1CCCCC1)c1nn2c(C(F)(F)F)cc(-c3ccc(Br)cc3)nc2c1Cl,IC50,[14],> 99 µM (inactive)
same,IC50,[15],> 99 µM (inactive)
c1cncc(-c2nc3sc4c(c3c3nncn23)CCCC4)c1,IC50,[14],> 99 µM (inactive)
same,IC50,[15],> 99 µM (inactive)
CCOc1nc(NC(=O)Cc2cc(OC)ccc2OC)cc(N)c1C#N,Ki,[16],> 7.94 µM (inactive)
O=c1[nH]c(=S)[nH]cc1Oc1ccc(Cl)cc1,EC50,[17],> 104 µM (inactive)
O=C(NCCC1=CCCCC1)C1CCC(CNc2[nH]c(=S)nc3ccccc23)CC1 (configuration not stated),EC50,[18],72.6 µM (active)
CC(Oc1cc(-c2cnn(C3CCNCC3)c2)cnc1N)c1c(Cl)ccc(F)c1Cl (configuration not stated),Ki,[19],> 2.51 µM (inactive)
same,Ki,[20],3.16 µM (active) and 794 nM (active)
COc1ccc(C)c(NCC(C)C(=O)O)c1 (configuration not stated),EC50,[21],> 100 µM (inactive)
N=C1/C(=C/c2coc3ccccc3c2=O)C(=O)N=C2SC(c3ccco3)=NN12,IC50,[22],11.6 µM (active)
same,AC50,[23],4.93 µM (active)
CC[C@]12c3[nH]c4ccc(OC)cc4c3CCN1C(=O)C(CC(=O)NCc1cccc(C(F)(F)F)c1)C[C@@H]2C(=O)N1CCN(C(=O)c2ccco2)CC1 (some centres not stated),IC50,[24],20.1 µM (inactive)
